From patent publication US11167040B2, “Conjugates comprising peptide groups and methods related thereto” (priority 2015, dated 2021)
Square brackets hold non-standard residues; d marks the D form. Peptide text beside a SMILES is read from it. Dolaproine = CO[C@@H]([C@@H]1CCCN1)[C@@H](C)C(=O)O; Dil = CC[C@H](C)[C@H](NC)[C@@H](CC(=O)O)OC; NMeV = CN[C@H](C(=O)O)C(C)C

How the values were obtained:
[1] = tested on: MCF-7 cells, which express low levels of EGFR; test: Cytotoxicity of Erbitux based ADCs, SRB; format: cell-based; conditions: 72 hours; read-out: IC50 against MCF-7 cells
Protocol: (§1) A431 cells, which express high levels of EGFR, and MCF-7 cells, which express low levels of EGFR, were plated at about 1000 cells per well in a 96-well plate in 100 μL of media. HCC-827 cells, which express an intermediate level of EGFR were plated at about 5000 cells per well in a 96-well plate in 100 μL of media. […] The cells were incubated for 72 hours and then fixed for 1 hour at 4° C. after adding 100 μL of ice-cold 10% trichloroacetic acid to each well.

[2] = tested on: A431 cells, which express high levels of EGFR; test: Cytotoxicity of Erbitux based ADCs, SRB; format: cell-based; conditions: 72 hours; read-out: IC50 against A431 cells
Protocol: as §1

[3] = tested on: HCC-827 cells, which express an intermediate level of EGFR; test: Cytotoxicity of Erbitux based ADCs, SRB; format: cell-based; conditions: 72 hours; read-out: IC50 against HCC-827 cells
Protocol: as §1

SK-BR3 cells = test: Plasma stability of ADCs: human plasma incubation, then SRB cytotoxicity test; format: cell-based; conditions: Table 18; human plasma 0 h; SK-BR3 cells 72 hr; read-out: Plasma stability of Herceptin based ADCs (nM), Plasma incubation time 0 h
NCI-N87 (HER2 positive) = test: Cytotoxicity of anti-HER2 ADCs, SRB assay; format: cell-based, human; conditions: Table 12, hybrid ADCs
Protocol: (§2) Commercially available human breast cancer cell lines MCF-7 (HER2 negative to normal), OE-19 (HER2 positive), NCI-N87 (HER2 positive), SK-OV-3 (HER2 positive), JIMT-1 (HER2 positive), and SK-BR-3 (HER2 positive) were used. The cell lines were cultured according to recommended specifications provided with the commercially available cell lines.
(§3) Anti-proliferation activities of the antibodies, drugs, and conjugates with regard to the cancer cell lines were measured. The cells were plated in 96-well, tissue culture plates at 1×10^4 cells per well. After 24 hour incubation, the antibodies, drugs, and conjugates were added in various concentrations. The number of viable cells after 72 hours were counted using SRB assay. Absorbance was measured at 540 nm using SpectraMax 190 (Molecular Devices, USA).

SK-OV-3 (HER2 positive) = test: Cytotoxicity of anti-HER2 ADCs, SRB assay; format: cell-based, human; conditions: Table 12, hybrid ADCs
Protocol: as §2, §3

[4] = tested on: MCF-7 (HER2 negative to normal); test: Cytotoxicity of anti-HER2 ADCs, SRB assay; format: cell-based, human; conditions: Table 12, hybrid ADCs
Protocol: as §2, §3

CC[C@H](C)[C@@H]([C@@H](CC(=O)N1CCC[C@H]1[C@H](OC)[C@@H](C)C(=O)N[C@@H](Cc1ccccc1)C(=O)OC)OC)N(C)C(=O)[C@@H](NC(=O)[C@@H](NC)C(C)C)C(C)C [MMAF-OMe, monomethyl auristatin F methyl ester] (H-[NMeV]V[Dil][Dolaproine]F-OMe)
IC50 [1]: 1.81 nM
IC50 [2]: 1.11 nM
IC50 [3]: 1.99 nM
IC50 (SK-BR3 cells): 0.48 nM
IC50 (NCI-N87 (HER2 positive)): 0.49 nM
IC50 (SK-OV-3 (HER2 positive)): 0.78 nM
IC50 [4]: 0.6 nM
